{"source": "patent US20010042520A1", "about": "“Method for producing model animals for itching induced by disruption of cutaneous barrier function” (priority 2000, published 2001)", "assay_type_in_all_cases": "in vivo, male ICR mice", "key": {"[1]": {"system": "scratching action induced by the disruption of the cutaneous barrier function of mice", "test": "Scratching action of mice with disrupted cutaneous barrier function (acetone/diethylether mixture and distilled water, twice daily for 5 days)", "settings": "for number of the scratching action based on that of the control group: 120 minutes recording, control average = 100%, average ± standard error, 8 mice; for number of the scratching action bouts per 120 minutes: 10% aqueous solution, control group 126.5±20.8, significant", "description": "(§1) A rostral part (4 cm^2, i.e. 2 cm×2 cm) of the back skin in each of 10 male ICR mice was shaved. Four days after the shaving, the following test was started: The skin was covered with a 2 cm×2 cm absorbent cotton impregnated with a mixture of acetone and diethylether (1:1) for 15 seconds. The skin was wiped to remove superfluous solvent, then covered with an absorbent cotton impregnated with distilled water for 30 seconds, and wiped in the same manner as that described above. This treatment for disrupting the cutaneous barrier function of the skin was conducted twice in daily at intervals of at least 8 hours for 5 days. In a control group, only the shaving was conducted.\nOn the next day after the completion of the 5 days treatment for disrupting the skin barrier function, each mouse was placed in each section of an acrylic acid resin cage (26×18×33 cm) divided into four sections (each section: 13×9×33 cm). After the mice was acclimatized to the cage in unmanned environment for 60 minutes, the action of each mouse was recorded for 120 minutes with a 8 mm video camera placed above the cage in such a manner that the 4 sections are in one scene. The scratching action was observed by playing back the video tape. The number of the scratching action by which the tip of a toe of a hind limb of the mouse touched the shaved part of the skin in 120 minutes was counted by the visual observation. One scratching action was a series of action beginning when the mouse raised its hind limb for starting the scratching and ending when the animal lowers its hind limb.\nThe effect of Terfenadine, which is a histamine H1 receptor antagonist, and that of Naloxone, which is an opioid antagonist, for relieving the itching were determined with the same test materials as those in Example 1. The barrier function-disrupting treatment was conducted in the same manner as that of Example 1. On the next day after the completion of the 5 days barrier function disrupting treatment, the scratching action of mice was recorded for 120 minutes in the same manner as that of Example 1. The observation of the behavior of the mice and the counting of the number of times of the scratching action were conducted in the same manner as that of Example 1. 10 mg/kg of Terfenadine which is the histamine H1 receptor antagonist, was perorally administered at 30 minutes before the starting to record the scratching action, or 1 mg/kg of Naloxone, which is an opioid receptor antagonist, was subcutaneously injected at 15 minutes before the starting to record the scratching action. […]\n(§2) The effect of glycerol (humectant) on the skin manifestations and itching induced by the barrier disruption treatment of the present invention was determined by using the test animals similar to those used in Example 1. […] The skin manifestations were examined by the visual observation and the determination of hydration of the stratum corneum based on the relative electrostatic capacitance determined with Corneometer CM 825 (Courage+Khazaka Electronics, Cologne, Germany). Hydration of the stratum corneum was determined before starting the first barrier disrupting treatment every day and on the next day after the completion of the five days barrier disruption treatment. As for the scratching action, the scratching action of each mouse was filmed and recorded for 120 minutes in the same manner as that in Example 1 on next day after the completion of the five days barrier disruption treatment. […]"}, "[2]": {"system": "hydration of the stratum corneum", "test": "Hydration of the stratum corneum by relative electrostatic capacitance (Corneometer CM 825) in barrier-disrupted mice", "description": "as §1\nas §2, with “treatment.” for “treatment. As for the scratching action, the scratching action of each mouse was filmed and recorded for 120 minutes in the same manner as that in Example 1 on next day after the completion of the five days barrier disruption treatment.”"}, "[3]": {"system": "formation of scales and wrinkles induced by the cutaneous barrier disruption", "test": "Visual observation of skin manifestations (scales and wrinkles) in barrier-disrupted mice", "description": "as §1\nas §2, with “treatment.” for “treatment. As for the scratching action, the scratching action of each mouse was filmed and recorded for 120 minutes in the same manner as that in Example 1 on next day after the completion of the five days barrier disruption treatment.”"}, "[4]": {"settings": "10 mg/kg perorally 30 minutes before recording"}}}
{"compound": "C=CCN1CC[C@]23c4c5ccc(O)c4O[C@H]2C(=O)CC[C@@]3(O)[C@H]1C5", "note": "[Naloxone]", "values": [{"measurement": "number of the scratching action based on that of the control group", "setting": "[1]; 1 mg/kg subcutaneously 15 minutes before recording, significant vs control (5%)", "value": "42.5±13.1", "unit": "%"}]}
{"compound": "CC(C)(C)c1ccc(C(O)CCCN2CCC(C(O)(c3ccccc3)c3ccccc3)CC2)cc1", "note": "(stereo not drawn) [Terfenadine]", "values": [{"measurement": "suppressing effect on the scratching action", "setting": "[1]; [4]", "value": "no suppressing effect was recognized"}, {"measurement": "number of the scratching action based on that of the control group", "setting": "[1]; [4]", "value": "124.2±49.3", "unit": "%"}]}
{"compound": "OCC(O)CO", "note": "[glycerol]", "values": [{"measurement": "hydration of the stratum corneum (relative electrostatic capacitance)", "setting": "[2]; 10% aqueous solution applied for 5 days, next day after the 5 days barrier disrupting treatment, 40.0±1.2 before start, control 15.5±2.1", "value": "44.7±3.0"}, {"measurement": "hydration of the stratum corneum (relative electrostatic capacitance)", "setting": "[2]; 10% aqueous solution applied for one day, recovered from 20.5±1.3 after 4 days of treatment, 43.5±1.3 before start", "value": "41.3±2.6"}, {"measurement": "formation of scales and wrinkles induced by the cutaneous barrier disruption", "setting": "[3]; 10% aqueous solution applied for 5 days", "value": "completely inhibited"}, {"measurement": "scales and wrinkle formation", "setting": "[3]; 10% aqueous solution applied for one day", "value": "slight scales and wrinkle formation was observed"}, {"measurement": "number of the scratching action bouts per 120 minutes", "setting": "[1]; 50 μl applied for 5 days, one hour after each barrier disruption treatment", "value": "42.5±10.0", "unit": "per 120 minutes"}, {"measurement": "number of the scratching action bouts per 120 minutes", "setting": "[1]; 50 μl applied for one day (twice on the fifth day)", "value": "76.5±14.6", "unit": "per 120 minutes"}]}
